The term melting point denotes the temperature, or range, at which the solid turns liquid.

Consider `CCNC(=S)Nc1ccccc1N1CCOCC1`, for which the melting point was in the range of 118 to 120 °C.

`Oc1nc(-c2ccc(Cl)cc2)nc2c1CCCC2` showed a melting point of 255 °C. For `CCOC(=O)C1=C(C)NC(CSC(=O)CCC2CCCCC2)=C(C(=O)OCC)C1c1cccc([N+](=O)[O-])c1` (configuration not stated), the melting point was in the range of 109 to 112 °C. In the case of `CCSc1ccc(-c2ccncc2)c2c1C(=O)CC(C)C2` (configuration not stated), the melting point lay in the range of 145 to 147 °C. On to `CCCc1c(OCc2cccc(C(=O)NCCCCc3cccnc3)c2)ccc(C(C)=O)c1O`, for which the melting point was 120 to 123 °C.

Molecule `Cc1cccc(NC(=O)NC2C(=O)N(C)c3ccccc3N(C34CC5CC(CC(C5)C3)C4)C2=O)c1` (configuration not stated) had a melting point of 245 to 247 °C. For the molecule `CN1CC[C@@H]2CC(=O)c3c(F)cc(F)cc3[C@@H]2C1` (relative stereo), the melting point was more than 220 °C. The molecule `CCc1nc2cccc(C)c2c(=O)n1-c1ccc(F)cc1` had a melting point of 170 °C. With `CCCCCCCCCCCCCc1c(C(F)(F)F)noc1NS(=O)(=O)c1ccc(-c2ccccc2)cc1`, the melting point was in the range of 115 to 116 °C.

`Oc1cncc(CCCOc2cccnc2Oc2cccc(Cl)c2)c1` came in with a melting point of 148 to 149 °C. In turn, `ON=C(c1ccccc1)c1ccc(C(=NO)c2ccc(C(=NO)c3ccccc3)cc2)cc1` came in with a melting point of 224 to 225 °C. Under `COc1cc2c(cc1OC)OCC(C(=O)O)=C2` stands 225 to 228 °C; under `Cc1cc(CC(=O)O)cc2c1NC(C(F)(F)F)CC2` (configuration not stated), 135 to 136 °C; under `COC(=O)c1ccc(NN=CC(F)(F)F)cc1S(=O)(=O)NC(=O)Nc1nc(OC)nc(OC)n1`, 117 to 119 °C. In turn, `O=C(O)Cn1cc2c(=O)n3c(nc2n1)SCC3` returned a melting point of 276 °C. The same measure for `Oc1ccc(-c2nnc(Nc3ccc(Br)c(Cl)c3)s2)cc1O`: 220 °C; for `Nc1ccc(C(=O)c2cccnc2)cc1[N+](=O)[O-]`: 229 to 230 °C. Consider `CC(C)Oc1cccc(Nc2cc(-c3c[nH]nc3-c3ccccn3)ccn2)c1`, for which the melting point stood at 218 °C. For `CN1CCC(c2nc(-c3ccccc3)c3ccccc3n2)CC1`, the melting point is 83 to 86 °C. For `CCCCCCCCc1cnc(-c2ccc(OCC(C)OCCC)cc2)nc1` (configuration not stated), the melting point was 37.4 °C. Molecule `COc1cc2c(Nc3ccc(Cl)cc3F)ncnc2cc1OCCN1CCSCC1` registered a melting point of 181 to 182 °C. Under `CCC1CCCCN1C(=O)C=Cc1c(-c2cccc(Cl)c2)nn2ccccc12` (configuration not stated) stands 100 to 104 °C; under `Cc1nc(-c2ccc(C(C)(C)C)cc2)sc1C(=O)N[C@H](C)[C@](O)(Cn1cncn1)c1ccc(F)cc1F`, 85 to 91 °C. In turn, `COc1ccc(CCNC(=O)C(F)(F)F)cc1OC` yielded a melting point of 93 °C. Under `NC(=O)N(O)CC1CC(c2ccco2)C1` (configuration not stated) stands 89 to 100 °C; under `CCC[C@H]1CC[C@H](CCCOc2ccc(C(=O)O[C@H](C)[C@@H](C)OC(=O)c3ccc(OCCC[C@H]4CC[C@H](CCC)CC4)cc3)cc2)CC1`, 109 °C.

`O=C1NCC(Cc2ccccc2O)O1` (configuration not stated) gave a melting point of 93 to 95 °C. Molecule `Cc1cccc(NC(c2ccc(C(F)(F)F)cc2)c2ccc3cccnc3c2O)n1` (configuration not stated) had a melting point of 136 to 138 °C. In turn, `Cc1cc2ncn(Cc3ccc(N)cc3)c2cc1C` returned a melting point of 238 to 239 °C. In turn, `N=C(N)NCc1cc(CCC(=O)O)no1` registered a melting point of more than 297 °C.

Molecule `CC(C)(C)C(CO)NC(=O)C(CC(=O)O)n1ccc(-c2ccc(-c3ccc(C(N)=O)cc3)cc2)c1` (configuration not stated) returned a melting point of 192 to 194 °C. The same measure for `CCCCOc1cc(/C=C(\OCC)C(=O)O)ccc1CCCc1ccc(OC)cc1`: 65 °C; for `O=S1C(c2ccccc2)CC2(CC1c1ccccc1)OCCO2` (configuration not stated): 230 to 232 °C.

`COC(=O)c1ccnc(NC(=O)C(CSC(C)=O)Cc2ccccc2)c1` (configuration not stated) had a melting point of 137 to 139 °C. Regarding `NS(=O)(=O)c1ccc(-n2nc(C(F)(F)F)cc2-c2ccc(-c3cscn3)c(C(F)(F)F)c2)cn1`, the melting point was determined as 114 °C.

In the case of `O=C(CCC(=O)c1ccc(F)cc1)Nc1ccc(-n2nc(C(F)(F)F)cc2C(F)(F)F)cc1`, the melting point fell in the range of 156 to 158 °C. In turn, `CN1C(=O)N(Cc2ccccc2)CC1(CCO)c1ccc(Cl)c(Cl)c1` (configuration not stated) registered a melting point of 118 °C. For the molecule `NC[C@H]1CCCN1C(c1ccccc1)(c1ccccc1)c1ccccc1`, the melting point turned out to be 100 °C. Consider `C[C@]12C/C(=C\F)[C@H]3[C@@H](CCC4=CC(=O)CC[C@@H]43)[C@@H]1CCC2=O`, for which the melting point was 208 to 212 °C.

`Cc1oc(-c2ccccc2)nc1C(=O)COc1ccc(C=C2SC(=O)NC2=O)cc1` returned a melting point of 244 to 245 °C. Molecule `O=C(N1CCC(O)(c2ccccc2)CC1)C(F)(F)F` returned a melting point of 123 to 125 °C. `O=C(c1ccc(OCC2CC2)c2oc3ccccc3c12)[NH+]([O-])c1cccnc1` (configuration not stated) yielded a melting point of 272 to 275 °C. The same measure for `CC(C)(C)c1cc(C(=O)O)ccc1OCc1ccccc1`: 213 to 214 °C; for `COC(=O)C1=C(C)NC(C)=C(C(=O)OCCCOc2ccc(CCOC3CCCCO3)cc2)C1c1cccc([N+](=O)[O-])c1` (configuration not stated): less than 50 °C. `NCc1ccc2sc3ccccc3c(=O)c2c1` returned a melting point of 134 to 136 °C.

On to `CN(C)C=Cc1[nH]c(=O)ccc1C#N`, for which the melting point lay within 298 to 300 °C. Under `CN(C)C=C(C(=O)c1ccccc1)c1ccc(F)cc1` stands 115 to 116 °C. Turning to `O=C1N[C@H](Cc2ccc(C(F)(F)F)cc2)[C@H](c2cccc(F)c2)O1` (racemic), the melting point is 143 to 144 °C. Regarding `CNC(=O)c1ccc(C=CC(=O)OC)cc1`, the melting point was 210 °C.

Consider `NC(=O)c1nccn1C1Cc2ccccc2C1=O` (configuration not stated), for which the melting point came out at 183 °C. In the case of `O=c1[nH]c2ccccc2cc1CN1CC=C(Cc2ccccc2)CC1`, the melting point lay within 155 to 158 °C. Consider `Cc1ccccc1-c1c(NC(=O)OC(C)(C)C)c(=O)oc2cc3c(cc12)CCC3`, for which the melting point was 154 to 155 °C.

In the case of `Cn1nc(-c2ccccc2S(=O)(=O)Cl)oc1=O`, the melting point was 122 to 125 °C. For `CC(C)N(C(=O)C(F)(F)F)C(C#N)c1ccc(Cl)cc1` (configuration not stated), the melting point was in the range of 78.5 to 79.5 °C.

In turn, `C=C1C(=CC=C2CCCC3(C)C2CCCC3C(C)CCCC(C)(C)O)CC(O)CC1O` (configuration not stated) showed a melting point of 124 to 127 °C. `NCCCc1cccnc1C(N)=O` gave a melting point of 153 to 156 °C. Turning to `CCOC(=O)c1ncn2c1[C@@H]1CCCN1C(=O)c1c(Cl)cccc1-2`, the melting point lay in the range of 182 to 184 °C. Under `C#CC(O)c1ncn(C(c2ccccc2)(c2ccccc2)c2ccccc2)n1` (configuration not stated) stands 138 to 139 °C; under `CC(C)N(CCN(C(=O)N(C)C)c1cccc(N)n1)C(C)C`, 86 to 88 °C; under `CCCNC(=O)C1c2ccccc2-c2ccccc21`, 197 to 199 °C. Molecule `CC=CCn1c(C)c(C)c2cnnc(OCc3ccc(OC(F)F)cc3)c21` registered a melting point of 109 to 110 °C. Consider `CC(C)NC(=O)c1coc(CN2C(=O)C3(COc4cc5c(cc43)OCO5)c3ccccc32)n1` (configuration not stated), for which the melting point lay within 182 to 183 °C. `COc1ccc(C(=O)NN=C(N)N)c(F)c1` came in with a melting point of 220 °C. The same measure for `COc1ccc(-c2c(CCN3CCN(c4cc(C)ccn4)CC3)c3cccc4c3n2CCC4)cc1`: 120 °C; for `COc1c(C)cc2[nH]c(S(=O)Cc3nccc(C)c3C)nc2c1C` (configuration not stated): 161 °C; for `OCCC1CCc2cc(OCc3ccc(-c4ccccc4)cc3)ccc2C1` (configuration not stated): 101 to 102 °C. The molecule `COC(=O)C1=CC(=O)CCC1c1cccs1` (racemic) yielded a melting point of 69 °C. `CN(Cc1cccc(-c2ccc(CC3SC(=O)NC3=O)cc2)c1)C(=O)c1ccno1` (configuration not stated) had a melting point of 160 °C. For `CCn1nc(-c2ccc(OC)c(F)c2)c(-c2ccc(OC)c(F)c2)cc1=O`, the melting point stood at 178 °C.

Consider `COc1ccc2ccc(I)cc2c1`, for which the melting point worked out at 116 °C. `CCn1c(N)c(-c2nccn2COCC[Si](C)(C)C)c(=O)c2ccc(-c3ccc(CC(=O)O)cc3)nc21` had a melting point of 220 °C.

`Cc1c(F)cccc1NC(=O)CN1CC2CCC(C1)N2S(=O)(=O)c1ccccc1` gave a melting point of 168 to 169 °C.

`Nc1c(Cl)cc(C(=O)O)c2c1CCO2` came in with a melting point of 258 °C. In turn, `CC(COc1ccc(CC2SC(=O)NC2=O)cc1)N1CC(COc2ccccc2)OC1=O` (configuration not stated) gave a melting point of 54 to 56 °C. On to `CCC(O)CN1CCC(CCN2CCN(c3cccc(Cl)c3Cl)CC2)CC1` (configuration not stated), for which the melting point came out at 94 °C. Under `Cc1ccc(-c2ccc(C(=O)CCC(=O)O)cc2)cc1` stands 183 to 186 °C; under `Cc1cc(Cc2cc(C(F)(F)F)cc(C(F)(F)F)c2)ccc1NC(=O)c1cccc(Cl)c1C(=O)NC(C)CS(C)=O` (configuration not stated), 162 to 165 °C; under `CNC(=O)C(=O)c1cc(Cl)cc(C)c1NC(=O)c1cc(Br)nn1-c1ncccc1Cl`, 246 to 247 °C. In turn, `COc1cc(C(=O)N2CCC(CCN3CCCN(c4nc5ccccc5n4CCOCC#N)CC3)(c3ccccc3)C2)cc(OC)c1OC` (configuration not stated) returned a melting point of 134 to 148 °C. With `CC(C)c1ccc(-c2nc3ccc(OC(F)(F)F)cc3[nH]2)cc1`, the melting point is 203 to 205 °C.

Molecule `CCCn1c(=O)c2[nH]c(/C=C/c3cc(OC)c(OCc4ccccc4)c(OC)c3)nc2n(CCC)c1=O` gave a melting point of 221 °C. Consider `CN1C(=S)NN2CCCC21c1ccc(Cl)cc1` (configuration not stated), for which the melting point fell in the range of 159 to 161 °C. As to `Clc1ccc(C(c2ccc(Cl)cc2)n2ncnn2)cc1`, the melting point was 91 to 92 °C.

`CC1CC2C3CCC4=CC(=O)C=CC4(C)C3=CCC2(C)C1C(=O)CN1CCN(c2cc(NC(C)(C)C)nc(NC(C)(C)C)n2)CC1` (configuration not stated) gave a melting point of 145 to 155 °C.

As for `CCOC(=O)c1ncc2[nH]c3cccc(OCc4cccc(F)c4)c3c2c1COC`, the melting point was 188 °C. `COC(=O)[C@H](Cc1ccccc1)NC(=O)N(Cc1ccccc1)NC(=O)OC(C)(C)C` gave a melting point of 71 to 73 °C.

Turning to `O=c1c2c(Cl)cc(Cl)cc2nc2n1CCCCC2`, the melting point was 110 to 112 °C.

(Values after a melting point compilation (Tetko et al.; mined from patent text by program, amines drawn as free bases though some values may be those of a salt).)
